ChEMBL document CHEMBL1201862, “PubChem BioAssay data set” (2004)
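The compound was tested at five concentrations on cells cultured in 96-well plates, with a 48-hour exposure period. GI50 is the concentration that inhibits growth by half.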 Activity calls are given as the source filed them. Rule as the data show it: active = GI50 up to about 1.1 µM and inactive = higher.

Experiments:
Assay in all cases: growth of human tumour cells (NCI), 48 h
[1] = system: HT-29
[2] = system: A549
[3] = system: NCI-H522
[4] = system: IGROV-1
[5] = system: MDA-MB-435
[6] = system: HCT-15
[7] = system: SN12C
[8] = system: SK-MEL-28
[9] = system: MOLT-4
[10] = system: Malme-3M
[11] = system: SW-620
[12] = system: DU-145
[13] = system: UACC-62
[14] = system: U-251
[15] = system: CCRF-CEM
[16] = system: UACC-257
[17] = system: NCI-H23

With `CN(CC(=O)O)Cc1c[nH]c2ccccc12` the GI50 [1] was > 100 µM (inactive), the GI50 [2] was > 100 µM (inactive) and the GI50 [3] was > 100 µM (inactive). For the same molecule, the GI50 [4] was > 100 µM (inactive), the GI50 [5] was > 100 µM (inactive) and the GI50 [6] was > 100 µM. The GI50 [7] was > 100 µM (inactive), the GI50 [8] was > 100 µM (inactive) and the GI50 [9] was > 100 µM (inactive). The GI50 [10] was > 100 µM (inactive), the GI50 [11] was > 100 µM (inactive) and the GI50 [12] was > 100 µM (inactive). The GI50 [13] was > 100 µM (inactive), the GI50 [14] was > 100 µM (inactive) and the GI50 [15] was > 100 µM (inactive). For the same molecule, the GI50 [16] was > 100 µM (inactive) and the GI50 [17] was > 100 µM (inactive).

In the case of `CC(=O)c1c(SCCN2CCOCC2)n(-c2ccccc2)c(=S)n(-c2ccccc2)c1=O`, the GI50 [1] is reported as 23.8 µM (inactive), the GI50 [2] is reported as 35.2 µM (inactive) and the GI50 [3] is reported as 21.8 µM (inactive). The GI50 [4] was 16.9 µM (inactive), the GI50 [5] was 16 µM (inactive) and the GI50 [6] was 19.5 µM. For the same molecule, the GI50 [7] was 16.9 µM (inactive), the GI50 [8] was 20.9 µM (inactive) and the GI50 [9] was 16 µM (inactive). For the same molecule, the GI50 [10] was 28.2 µM (inactive), the GI50 [11] was 20.7 µM (inactive) and the GI50 [12] was 8.99 µM (inactive). For the same molecule, the GI50 [13] was 15.5 µM (inactive), the GI50 [14] was 31.2 µM (inactive) and the GI50 [15] was 10.8 µM (inactive). The GI50 [16] was 15.4 µM (inactive) and the GI50 [17] was 27.6 µM (inactive).

`C/C(=N/NC(=S)N1CCCCCC1)c1cccc(/C(C)=N\NC(=S)N2CCCCCC2)n1` was tested, and the GI50 [1] was 2.16 µM (inactive), the GI50 [2] was 2.07 µM (inactive) and the GI50 [3] was 2.62 µM (inactive). For the same molecule, the GI50 [4] was 1.49 µM (inactive), the GI50 [5] was 1.84 µM (inactive) and the GI50 [6] was 2.09 µM. The GI50 [7] was 2.09 µM (inactive), the GI50 [8] was 2.3 µM (inactive) and the GI50 [9] was 2.43 µM (inactive). The GI50 [10] was 0.938 µM (active), the GI50 [11] was 1.11 µM (active) and the GI50 [12] was 2.29 µM (inactive). For the same molecule, the GI50 [13] was 2.38 µM (inactive), the GI50 [14] was 2.32 µM (inactive) and the GI50 [15] was 2.67 µM (inactive). The GI50 [16] was 1.58 µM (inactive) and the GI50 [17] was 2.31 µM (inactive).

For `COc1ccc(C=O)cc1OS(=O)(=O)C(F)(F)C(F)(F)C(F)(F)C(F)(F)F`, the GI50 [1] was 29.9 µM (inactive), the GI50 [2] was 48.4 µM (inactive) and the GI50 [3] was 24.5 µM (inactive). The GI50 [4] was 24.9 µM (inactive), the GI50 [5] was 19.9 µM (inactive) and the GI50 [6] was 26.9 µM. For the same molecule, the GI50 [7] was 42.1 µM (inactive), the GI50 [8] was 24.4 µM (inactive) and the GI50 [9] was 3.23 µM (inactive). For the same molecule, the GI50 [10] was 23.4 µM (inactive), the GI50 [11] was 24.9 µM (inactive) and the GI50 [12] was > 68.2 µM (inactive). The GI50 [13] was 21.4 µM (inactive), the GI50 [14] was 22.9 µM (inactive) and the GI50 [15] was 14.8 µM (inactive). The GI50 [16] was 36.6 µM (inactive) and the GI50 [17] was 32.1 µM (inactive).

With `O=c1c(Nc2ccccc2)cn(CCOc2ccccc2)c(=O)n1CCOc1ccccc1` the GI50 [1] was > 100 µM (inactive), the GI50 [2] was 91.8 µM (inactive) and the GI50 [3] was 29.1 µM (inactive). The GI50 [4] was 36.3 µM (inactive), the GI50 [5] was > 100 µM (inactive) and the GI50 [6] was > 100 µM. The GI50 [7] was > 100 µM (inactive), the GI50 [8] was > 100 µM (inactive) and the GI50 [9] was > 100 µM (inactive). For the same molecule, the GI50 [10] was 79.6 µM (inactive), the GI50 [11] was > 100 µM (inactive) and the GI50 [12] was 53 µM (inactive). For the same molecule, the GI50 [13] was 41.2 µM (inactive), the GI50 [14] was > 100 µM (inactive) and the GI50 [15] was > 100 µM (inactive). For the same molecule, the GI50 [16] was 83.2 µM (inactive) and the GI50 [17] was 33.4 µM (inactive).

For `CCCCCCCc1c(Cl)nc(Cl)nc1Cl`, the GI50 [1] was 4.04 µM (inactive), the GI50 [2] was 16.9 µM (inactive) and the GI50 [3] was 1.74 µM (inactive). For the same molecule, the GI50 [4] was 2.29 µM (inactive), the GI50 [5] was 2.65 µM (inactive) and the GI50 [6] was 3.66 µM. The GI50 [7] was 2.05 µM (inactive), the GI50 [8] was 7.11 µM (inactive) and the GI50 [9] was 1.15 µM (inactive). The GI50 [10] was 3.01 µM (inactive), the GI50 [11] was 2.68 µM (inactive) and the GI50 [12] was 14.3 µM (inactive). The GI50 [13] was 5.82 µM (inactive), the GI50 [14] was 4.89 µM (inactive) and the GI50 [15] was 0.494 µM (active). The GI50 [16] was 10.4 µM (inactive) and the GI50 [17] was 3.72 µM (inactive).

With `Nc1cccc(/C=C/CN2CCN(CCOC(c3ccccc3)c3ccccc3)CC2)c1` the GI50 [1] was 3.15 µM (inactive), the GI50 [2] was 15.1 µM (inactive) and the GI50 [3] was 13.9 µM (inactive). For the same molecule, the GI50 [4] was 16.3 µM (inactive), the GI50 [5] was 14.3 µM (inactive) and the GI50 [6] was 12.8 µM. For the same molecule, the GI50 [7] was 16.8 µM (inactive), the GI50 [8] was 14 µM (inactive) and the GI50 [9] was 3.54 µM (inactive). For the same molecule, the GI50 [10] was 18.2 µM (inactive), the GI50 [11] was 15.9 µM (inactive) and the GI50 [12] was 13.6 µM (inactive). The GI50 [13] was 17.4 µM (inactive), the GI50 [14] was 14.6 µM (inactive) and the GI50 [15] was 9.98 µM (inactive). For the same molecule, the GI50 [16] was 15.9 µM (inactive) and the GI50 [17] was 16.1 µM (inactive).

`C1=N/CCNCCNCC/N=C/c2ccccc2OCc2cccc(n2)COc2ccccc2/1` was tested, and the GI50 [1] was 25.6 µM (inactive), the GI50 [2] was > 100 µM (inactive) and the GI50 [3] was 37.8 µM (inactive). The GI50 [4] was 52.6 µM (inactive), the GI50 [5] was 11.3 µM (inactive) and the GI50 [6] was 45.1 µM. The GI50 [7] was 43.8 µM (inactive), the GI50 [8] was > 100 µM (inactive) and the GI50 [9] was 27.4 µM (inactive). For the same molecule, the GI50 [10] was 61.8 µM (inactive), the GI50 [11] was 36.2 µM (inactive) and the GI50 [12] was 56.9 µM (inactive). For the same molecule, the GI50 [13] was 79.1 µM (inactive), the GI50 [14] was 26.7 µM (inactive) and the GI50 [15] was 16.2 µM (inactive). The GI50 [16] was 53.7 µM (inactive) and the GI50 [17] was 86.3 µM (inactive).
